Source: publication PMC7579906, “Discovery of a dual inhibitor of NQO1 and GSTP1 for treating glioblastoma” (Journal of Hematology & Oncology, 2020)

Columns and labels:
[1] = tested on: HK296 – EGFRvIII primary GBM cells; test: Limiting dilution sphere formation, HK296; assay type: cell-based; conditions: MNPC 5 μM, control 1/21.1
Procedure: (§1) For sphere formation experiments, cell numbers were calculated and cells were plated into 96-well plates at a density of 100, 50, 25, and 12 cells per well (24 wells for each density). Cells were kept in the incubator for 2 weeks before sphere formation was assessed and images were taken. Spheres larger than 10 cells in diameter were considered for analysis. The number of wells forming spheres was used as input to the Walter and Eliza Hall Institute Bioinformatics Division ELDA analyzer (https://bioinf.wehi.edu.au/software/elda/) in order to obtain stem cell frequencies.

[2] = tested on: EGFR wild-type primary GBM cultures (HK408, HK157 – no EGFRvIII); test: Limiting dilution sphere formation, EGFR wild-type cultures; assay type: cell-based
Procedure: as §1

NQO1 = molecular target: T1, NQO1 (Homo sapiens, UniProt P15559); test: NQO1 activity assay (DCPIP reduction); assay type: biochemical; conditions: purified recombinant protein, Fig. 3b; read-out: IC50, inhibition of NQO1 activity
T1 construct: hexahistidine tag followed by a thrombin site (N); made in house; host or cells: Escherichia coli BL21 (DE3)
Procedure: NQO1 activity was measured essentially as described previously. Assays were performed in 25 mM Tris–HCl, pH 7.4, 0.7 mg/mL BSA, 250 mM sucrose, 0.2 mM NADPH and 40 μM dichlorophenolindophenol (DCPIP) in the presence of NQO1 protein with 10, 5, 2.5, 1.25, 0.625, 0.3125, 0.15625 and 0 μM of MNPC. It is analyzed for the reduction of DCPIP measured at 600 nm.

wild-type GSTP1 = molecular target: T2, wild-type GSTP1 (Homo sapiens, UniProt P09211, I105V); test: GSTP1 kinetic assay (GSH/CDNB conjugation), wild type; assay type: biochemical; conditions: Supplementary Table 1, mean ± SEM (n=3), 30 min pre-incubation; read-out: IC50 (μM), GSTP1 WT
T2 construct: hexahistidine tag followed by a thrombin site (N); made in house; host or cells: Escherichia coli BL21 (DE3)
Procedure: (§2) The enzymatic activity of GSTP1 and its mutations was measured through the increased absorbance at 340 nm, which derived from the conjugation of reduced glutathione (GSH) and 1-chloro-2,4-dinitrobenzene (CDNB). The conjugation was initiated by adding CDNB to the mixture of GSH and GSTP1 or its mutants, and OD was immediately and continually measured for 20 min at 25 °C. The final assay mixture included 1 mM CDNB, 1 mM GSH in the buffer of 100 mM potassium phosphate pH 6.5, 1 mM EDTA. The inhibitory potency of MNPC versus GSTP1 or mutants was determined by calculating the residual activity after incubated with MNPC for 30 min at room temperature. Parallel control was run to monitor spontaneous conjugation of GSH and CDNB in the absence of the enzyme, and absorbance change of the control was used for the correction of an enzymatic reaction. The inhibition rate in triplicate was calculated by GraphPad Prism software (GraphPad, San Diego, CA) to give IC50 using nonlinear regression analysis.

GSTP1 F8A = molecular target: T3, GSTP1 F8A (Homo sapiens, UniProt P09211, F9A/I105V); test: GSTP1 kinetic assay, F8A mutant; assay type: biochemical; conditions: mean ± SEM (n=3)
T3 construct: hexahistidine tag followed by a thrombin site (N); made in house; host or cells: Escherichia coli BL21 (DE3)
Procedure: as §2

GSTP1 R100A [3] = molecular target: T4, GSTP1 R100A (Homo sapiens, UniProt P09211, I105V/R101A); test: GSTP1 kinetic assay, R100A mutant; assay type: biochemical; conditions: mean ± SEM (n=3)
T4 construct: hexahistidine tag followed by a thrombin site (N); made in house; host or cells: Escherichia coli BL21 (DE3)
Procedure: as §2

GSTP1 V104A [4] = molecular target: T5, GSTP1 V104A (Homo sapiens, UniProt P09211, I105A); test: GSTP1 kinetic assay, V104A mutant; assay type: biochemical; conditions: mean ± SEM (n=3)
T5 construct: hexahistidine tag followed by a thrombin site (N); made in house; host or cells: Escherichia coli BL21 (DE3)
Procedure: as §2

GSTP1 R100A [5] = molecular target: T4, GSTP1 R100A; test: Microscale thermophoresis (MST), R100A; conditions: n.b. = no clear binding detected
Procedure: (§3) Since Tris buffer is incompatible with MST labeling, GSTP1 and its mutants were performed an initial buffer exchange to 20 mM HEPES pH 7.6, 200 mM NaCl before labeling. Then, the proteins were fluorescently labeled using Monolith Protein Labeling Kit RED-NHS 2nd generation dye (NanoTemper Technology, Munich, Germany) according to the protocol. MNPC was prepared with a series of concentrations (varying from 2 mM to 11 nM) at a dilution ratio of 1: 2. Six microliters of the fluorescence-labeled GSTP1 or mutations was mixed with 6 μl of variable concentration of MNPC and incubated for 10 min at room temperature. The mixtures were loaded into standard glass capillaries and analyzed on Monolith NT.115 at 25 °C, with 40% LED power and 100% Laser power in triplicate. Data were analyzed by NTAnalysis software to calculate the Kd values.

GSTP1 V104A [6] = molecular target: T5, GSTP1 V104A; test: Microscale thermophoresis (MST), V104A; assay type: binding; conditions: mean ± SEM, three experiments
Procedure: as §3

GSTP1 F8A/Y108A = molecular target: T6, GSTP1 F8A/Y108A (Homo sapiens, UniProt P09211, F9A/I105V/Y109A); test: Microscale thermophoresis (MST), F8A/Y108A; conditions: n.b. = no clear binding detected
T6 construct: hexahistidine tag followed by a thrombin site (N); made in house; host or cells: Escherichia coli BL21 (DE3)
Procedure: as §3

[7] = tested on: normal cells (HC11, ACS-5003, MEFs); test: Cell proliferation and LDH assays in normal cells; assay type: cell-based; conditions: up to 5 μM
Procedure: In vitro assessment was implemented for cell proliferation using the 3-(4, 5- dimethylthiazol- 2-yl)-2,5-diphenyltetrazolium bromide (MTT) assay. After different treatments with specific time periods, 10 μL of MTT (5 mg/mL in PBS, Sigma, USA) was added to each well and the plates were incubated for 3 h at 37 °C. The resulting formazan product was dissolved with DMSO. The absorbance at a wavelength of 490 nm was recorded using a microplate reader (BioTek Instruments Inc., USA).
After collecting the supernatants, the […] were measured using LDH assay kits (Promega Corporation, USA). Protein carbonyl level and GSH/GSSG ratio were measured from cell homogenates using Protein Carbonyl Assay Kit (#ab126287, Abcam, Cambridge MA, USA) and GSH/GSSG-Glo™ (Promega Corporation, USA), respectively.

U87MG/EGFRvIII cells = test: Transwell migration assay; assay type: cell-based, human; conditions: 0-1 μM
Procedure: A total of 1 × 10^4 cells were seeded onto the upper part of a transwell chamber (BD Bioscience, USA) containing a membrane filter for migration assays. Serum-free medium was added to the upper well, and medium containing 10% FBS was added to the lower well. After different treatments and incubation at 37 °C with 5% CO2, the filters were stained with crystal violet. Five random fields were counted per chamber by using a microscope.

T4 sequence (P09211 whole entry R101A/I105V): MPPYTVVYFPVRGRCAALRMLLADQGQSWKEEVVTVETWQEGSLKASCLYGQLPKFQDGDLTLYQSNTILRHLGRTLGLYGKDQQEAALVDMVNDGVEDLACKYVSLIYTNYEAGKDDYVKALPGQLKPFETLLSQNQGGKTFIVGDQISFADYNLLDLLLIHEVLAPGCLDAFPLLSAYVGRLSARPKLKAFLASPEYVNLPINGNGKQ
T6 sequence (P09211 whole entry F9A/I105V/Y109A): as the sequence (P09211 whole entry R101A/I105V) above, with F9A, A101R, Y109A counted along it
T5 sequence (P09211 2-210 I105A): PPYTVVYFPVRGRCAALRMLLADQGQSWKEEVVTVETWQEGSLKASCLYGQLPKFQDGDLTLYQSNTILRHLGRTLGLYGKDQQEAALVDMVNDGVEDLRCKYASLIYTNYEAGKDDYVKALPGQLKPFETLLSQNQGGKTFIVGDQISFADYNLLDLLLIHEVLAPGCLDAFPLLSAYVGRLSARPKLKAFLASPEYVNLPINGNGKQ
T3 sequence (P09211 whole entry F9A/I105V): as the sequence (P09211 whole entry R101A/I105V) above, with F9A, A101R counted along it
T2 sequence (P09211 whole entry I105V): as the sequence (P09211 whole entry R101A/I105V) above, with A101R counted along it
T1 sequence (P15559 whole entry): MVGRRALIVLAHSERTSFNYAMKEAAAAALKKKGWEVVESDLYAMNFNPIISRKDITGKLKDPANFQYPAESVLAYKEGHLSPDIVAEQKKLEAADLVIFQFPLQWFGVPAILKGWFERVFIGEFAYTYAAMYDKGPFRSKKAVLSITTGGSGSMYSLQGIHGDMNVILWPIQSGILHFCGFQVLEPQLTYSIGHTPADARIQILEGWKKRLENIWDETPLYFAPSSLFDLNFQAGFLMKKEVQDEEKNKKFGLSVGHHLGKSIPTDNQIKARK

Structure (SMILES): Cc1onc(-c2ccccc2)c1C(=O)Nc1ncc([N+](=O)[O-])s1 [MNPC, 5-methyl-N-(5-nitro-thiazol-2-yl)-3-phenylisoxazole-4-carboxamide]
- Stem cell frequency [1]: 1/64
- Effect on sphere formation [2]: little or no effect
- IC50 (NQO1): 926 nM
- IC50 (wild-type GSTP1): 0.4 ± 0.39 µM
- IC50 (GSTP1 F8A): 2.42 ± 0.36 µM
- IC50 (GSTP1 R100A [3]): 2.37 ± 0.38 µM
- IC50 (GSTP1 V104A [4]): 0.65 ± 0.19 µM
- Kd (μM), R100A (GSTP1 R100A [5]): n.b. and no detectable binding
- Kd (GSTP1 V104A [6]): 24.4 ± 1.95 µM
- Kd (μM), F8A/Y108A (GSTP1 F8A/Y108A): n.b. and no detectable binding
- Effect on cell proliferation of normal cells [7]: barely affected
- Effect on migration (U87MG/EGFRvIII cells): no effect
